The conditions of data set [1]: cited from earlier work.
For data set [2] the following is noted: cited from earlier work. This is another data set of the same source.
The nature of data set [3]: Dissolution and crystallization behaviour in lower alcohols. The class given is physicochemical. The note with it: heated lower alcohols, then cooled below ambient temperature, for example 15-25° C.

SMILES strings stand for the structures.

In the case of `COc1ccc([C@@H]2CC(=O)c3c(O)cc(O[C@@H]4O[C@H](CO[C@@H]5O[C@@H](C)[C@H](O)[C@@H](O)[C@H]5O)[C@@H](O)[C@H](O)[C@H]4O)cc3O2)cc1O` [Hesperidin], the solubility in water entry in data set [1] (ambient temperature, about one gram in 50 1 water) is “about 0.002 w/v %”. For the same molecule, the solubility in words result in data set [1] (aqueous alkaline solutions, water and acids) was “dissolves in aqueous alkaline solutions but not substantially in water and acids”.

Consider `COc1ccc([C@@H]2CC(=O)c3c(O)cc(O)cc3O2)cc1O` [hesperetin, 3',5,7-trihydroxy-4'-metoxyflavanone], for which the water solubility result in data set [2] is “substantially water-insoluble”.

Regarding `COc1ccc(C2CC(=O)c3c(O)cc(O[C@@H]4O[C@H](CO[C@@H]5O[C@@H](C)[C@H](O)[C@@H](O)[C@H]5O)[C@@H](O[C@H]5O[C@H](CO)[C@@H](O)[C@H](O)[C@H]5O)[C@H](O)[C@H]4O)cc3O2)cc1O` (stereo partly drawn) [α-monoglucosyl hesperidin], the “solubility and crystallization in lower alcohols” value in data set [3] is given as “easily dissolves in heated lower alcohols but easily crystallizes therein when the alcohols are cooled down to temperatures below ambient temperature”.

As to `COc1ccc(C2CC(=O)c3c(O)cc(O[C@@H]4O[C@H](CO)[C@@H](O)[C@H](O)[C@H]4O)cc3O2)cc1O` (stereo partly drawn) [β-monoglucosyl hesperetin, 7-O-β-monoglucosyl hesperetin], in data set [3], the “solubility and crystallization in lower alcohols” value is “easily dissolves in lower alcohols and does not substantially crystallize even when the alcohols are cooled down to temperatures below ambient temperature”.

Source of the values: US6048712A, “Process for producing α-monoglucosyl hesperidin-rich substance” (Kabushiki Kaisha Hayashibara, priority 1997, dated 2000).
